Measurements reported in patent publication US20110201113A1, “Ex Vivo Progenitor and Stem Cell Expansion and Differentiation for Use in the Treatment of Disease of the Nervous System” (priority 2010, published 2011).

B1: Wnt1: wingless-type MMTV integration site family, member 1; growth factor, 20 ng/ml, R&D (protein, UniProt P04628 28-370, looked up)
Proto-oncogene Wnt-1: ANSSGRWWGIVNVASSTNLLTDSKSLQLVLEPSLQLLSRKQRRLIRQNPGILHSVSGGLQSAVRECKWQFRNRRWNCPTAPGPHLFGKIVNRGCRETAFIFAITSAGVTHSVARSCSEGSIESCTCDYRRRGPGGPDWHWGGCSDNIDFGRLFGREFVDSGEKGRDLRFLMNLHNNEAGRTTVFSEMRQECKCHGMSGSCTVRTCWMRLPTLRAVGDVLRDRFDGASRVLYGNRGSNRASRAELLRLEPEDPAHKPPSPHDLVYFEKSPNFCTYSGRLGTAGTAGRACNSSSPALDGCELLCCGRGHRTRTQRVTERCNCTFHWCCHVSCRNCTHTRVLHECL
B2: Wnt5a: wingless-type MMTV integration site family, member 15a (as printed); growth factor, 20 ng/ml, R&D (protein, UniProt P41221 62-380, looked up)
Protein Wnt-5a: IIGAQPLCSQLAGLSQGQKKLCHLYQDHMQYIGEGAKTGIKECQYQFRHRRWNCSTVDNTSVFGRVMQIGSRETAFTYAVSAAGVVNAMSRACREGELSTCGCSRAARPKDLPRDWLWGGCGDNIDYGYRFAKEFVDARERERIHAKGSYESARILMNLHNNEAGRRTVYNLADVACKCHGVSGSCSLKTCWLQLADFRKVGDALKEKYDSAAAMRLNSRGKLVQVNSRFNSPTTQDLVYIDPSPDYCVRNESTGSLGTQGRLCNKTSEGMDGCELMCCGRGYDQFKTVQTERCHCKFHWCCYVKCKKCTEIVDQFVCK

Experiments:
[1] = system: Human neural stem cells; test: Proliferation of neural stem cells treated with various bioactive molecules (alternating growth conditions, cell counting); format: cell-based; conditions: second 8 weeks of 16; factor + 1% FBS alternating weekly with EGF, bFGF, LIF, no FBS
Experimental: hNSC's were alternately cultured in media containing a certain growth factor and serum (GF+FBS) or in the media containing EFL but lacking the presence of fetal bovine serum (EFL−FBS) as shown in FIG. 3. The media was changed on days 7 and 14 after plating the cells. This example utilized an initial incubation in EFL−FBS, followed by incubation in media including FBS. Experimental analysis of hNSCs was carried out on days 5, 10, 15, and 20, if not otherwise indicated.
Medium 2 (+GFs): DMEM/F12 (1:1), 2% B27 (Gibco), 1% Pen-Strep (PAA), 1% FBS (Gibco)+one of the combination of growth factors (CNTF, Jagged, SHH, TGFa, Wnt1, Wnt5A, or all)
7 different combinations of growth factors were used: 2.1. CNTF (20 ng/ml, Peprotech); 2.2. Jagged (20 ng/ml, Peprotech); 2.3. SHH (20 ng/ml, Peprotech); 2.4. TGFa (20 ng/ml, Peprotech); 2.5 Wnt1 (20 ng/ml, R&D); 2.6 Wnt5A (20 ng/ml, R&D); and 2.7 all above.
On days 5, 10, 15, and 20, if not otherwise indicated, neurospheres were dissociated using trypsin and single cells were counted using a hemocytometer. As a control, hNSCs were continuously grown in the absence of serum, but in the presence of growth factors EFL (control). The color code indicates the specific growth factor (GF) that was used in the GF+FBS mode. Abbreviations used: GF, growth factor; CNTF, ciliary neurotrophic factor; Jagged, SHH, sonic hedgehog; TGFα, transforming growth factor alpha; Wnt1, wingless-type MMTV integration site family, member 1; Wnt5A wingless-type MMTV integration site family, […]; or combined (CNTF, Jagged, SHH, TGFα, Wnt1, Wnt5A), E, EGF; F, bFGF; L, LIF.
Human neural stem cells are most routinely grown in medium supplemented with EGF and bFGF (and LIF). […] Cells were grown for 16 weeks and counted regularly every two weeks. […] Cells were counted 8 times. […] At the last time point analyzed, 5 times more cells were grown with control medium than under any other conditions.

[2] = system: Human neural stem cells; test: Differentiation of neural stem cells to neurons and astrocytes (bTubIII immunostaining on laminin); format: cell-based; conditions: cells taken after 8 and 12 weeks in culture, 14 days on laminin without factors; 3 random fields counted
Experimental: Next, how the stimulation of signaling pathways affects the commitment of human neural stem cells to neuronal and glial lineages was examined. For differentiation, samples of cells grown in all 8 conditions were removed from proliferating cell populations (after 8 and 12 weeks in culture) and plated onto laminin coated coverslips. All additional factors were excluded from culture medium and cells were grown for 14 days. Next, cells were fixed and stained for neural and glial markers as described previously. Examples of immunocytochemistry analysis can be seen on FIG. 8. […] No cells were detected as positive for oligodendrocyte marker O4. After immunostaining, cells from 3 random fields were counted and their differentiation potential was estimated according to the number of bTubIII positive cells present in samples. Results can be seen on FIG. 9. […] Cells grown with Wnt5a had the least percentage of bTubIII positive cells (33%), all the other conditions gave 41 to 47% of bTubIII positive cells (in control 45%).

Row | Molecule | support of cell growth [1] | percentage of bTubIII positive cells [2] [%]
1 | TGFa: transforming growth factor alpha, 20 ng/ml, Peprotech | slightly more efficient than the others | 
2 | Jagged-1: Jagged growth factor, 20 ng/ml, Peprotech | slightly more efficient than the others | 
3 | B1 | slightly more efficient than the others | 
4 | B2 |  | 33
